Test [1] has as its system conditionally female sterile tobacco plants. The test is described as follows: Foliar spray on conditionally female sterile transgenic tobacco (stig1-deacetylase plus plastocyanin-PAT). The class given is in vivo, Nicotiana tabacum var. Samsun. How it is done:
Tobacco leaf discs are transformed with the recombinant binary vectors using methods similar to those described in Horsch et al (1985) Science, 227, 1229-1231. Many variations of the method may be used. The binary vector can be transformed into, for example, Agrobacterium tumefaciens strain LBA 4404 using the freeze thaw method of transformation. Tobacco transformation and whole plant regeneration is performed using Nicotiana tabacum var. Samsun according to protocols described by Draper et al (Plant Genetic Transformation, Blackwell Sci. Pub. 1989). Transformation events are selected on MS-media containing kanamycin or other suitable antibiotic. Alternatively selection is made on phosphinothricin. The presence of integrated transgenes is confirmed by PCR. Plants are regenerated and allowed to reach maturity and selfed on to produce seed. Northern and/or Western analysis is used to confirm tissue-specific expression of the deacetylase. The plants are self-fertile but have the condition of conditional female sterility. Seeds of the T1 generation are planted out. Once plantlets have grown to a sufficient size they are tested by PCR for the presence of transgene. PCR positive plants are transferred to the greenhouse. These plants are fully fertile in the absence of exogenously applied phosphinothricin. A subset of these (putatively) conditionally sterile plants are treated with DL-phosphiothricin or L phosphinothricin in various amounts and at varying growth stages. Such treatments are carried out on the T1 plants confirmed as PCR positive for the deacetylase gene, or, equally, such treatments are carried out directly on plants of the To generation (which are vegetatively cloned so that untreated clones of each event may be set aside for seed production). […] For example, phosphinotricin is applied as a foliar spray, prior to or during the early stages of flower formation, at rates usually between 0.25 and 20 kg/ha. Undamaged appearing plants are selected and pollen from the treated plants is collected and viability is tested. […]

Test [2] has as its system conditionally male sterile tobacco plants. The test is described as follows: Foliar spray on conditionally male sterile transgenic tobacco (TA29-deacetylase plus plastocyanin-PAT). The class given is in vivo. The procedure: Tobacco plant material is transformed, via Agrobacterium, with vector and transgenic plants are regenerated in a similar manner to that described in the previous example. The plants produced are self-fertile but are conditionally male sterile. Seeds of the T1 generation are planted out into soil. Once plantlets have grown to a sufficient size they are tested by PCR for the presence of transgene. PCR positive plants are transferred to the greenhouse. These plants are fully fertile in the absence of exogenously applied herbicide. A subset of these putatively conditionally sterile T1 plants, or, alternatively plantlets of T0 ‘events’ (direct regenerants from transformation) are treated with phosphinothricin in various amounts and at varying growth stages. Where To plants are treated they are vegetatively cloned so that untreated siblings of the events are set aside for seed production. […] For example, phosphinothricin is applied as a foliar spray, prior to or during the early stages of flower formation, at rates usually between 0.25 and 20 kg/ha.
Pollen from the treated plants is collected and viability is tested. […] Pollen collected from some of the treated plants is tested and found to be malformed and non-viable. […]

Test [3] relates to wheat plants with PAT gene under plastocyanin promoter region. The test can be described thus: Application to wheat plants expressing PAT under a plastocyanin promoter region. The class given is in vivo. The conditions noted are these: rates of at least 2 kg/ha. From the text:
Firstly, the PAT gene is expressed under operable control of a plastocyanin promoter region so that it is expressed substantially only in the green tissues of the plant. […] Thus a critical feature of the constructs described in the foregoing examples which are used to provide the plants of the current example is that the PAT gene which provides the resistance trait is expressed under operable control of a promoter region which provides for expression in substantially only the green tissues. A characteristic of such a useful promoter region is that it should express PAT in such a way that it protects adequately all the […] floral tissues from foliarly applied DL phosphinothricin whilst, at the same time, providing only a minimal level of PAT expression in the floral tissue itself and especially low in those parts targeted for conditional sterility. With PAT expressed under operable control of the barley plastocyanin promoter region this condition appears to be met since substantially all of the L-phosphinothricin which is sprayed enters via the leaves is intercepted and converted to non-phytotoxic N-acetyl-L-phosphinothricin before it translocated to developing floral tissues. […]

The subject of test [4] is transgenic plants comprising a PAT gene under operable control of the plastocyanin promoter region. The test is described as follows: Foliar spray on control transgenic tobacco with PAT gene under plastocyanin promoter, no deacetylase gene. The class given is in vivo, Nicotiana tabacum var. Samsun. The conditions noted are these: rates in excess of 2 kg/ha; no deacetylase co-expressed.

Take `CP(=O)(O)CC[C@H](N)C(=O)O` (racemic) [phosphinothricin]: in test [1] (foliar spray prior to or during early flower formation, selected lines), the “seed production after treatment” value is on record as “relatively little or no seed”. Moreover, the “vegetative damage (appearance of treated plants)” value in test [1] (foliar spray prior to or during early flower formation, treatment rates of up to 5 kg/ha) is reported as “relatively undamaged”. Also, in test [1] (same treatment conditions as for seed production), the “viable pollen production after treatment” value is “near normal levels of viable pollen”. Moreover, the “pollen shed and viability after treatment” value in test [2] (foliar spray prior to or during early flower formation, rates usually between 0.25 and 20 kg/ha) is “no or relatively little pollen and/or pollen which is not viable”. Moreover, the “female fertility of treated male infertile plants” value in test [2] (pollinated with pollen from untreated non-transgenic or conditionally female-sterile tobacco) is “remain female fertile”.
Turning to `CP(=O)(O)CCC(N)C(=O)O` (stereo not drawn) [DL PPT, DL phosphinothricin], the “reproductive tolerance to the herbicide” value was “substantially reproductively tolerant” in test [3] and “substantially complete reproductive tolerance” in test [4].

(Values after patent US7723576B2, “Method of selectively producing male or female sterile plants” (Syngenta Limited, priority 2003, dated 2010).)
